A short description of data set [1]: conversion of creatine to creatinine in solutions of different pH. It counts as physicochemical. An excerpt:
FIG. 1 is a graph showing rate of creatinine formation from creatine as a function of pH;
FIG. 2 is a graph showing rate of creatine loss as a function of time upon dissolution in different pH buffers; and
FIG. 3 is a chart showing time in minutes for conversion of 1 g creatine to creatinine in 2 liter at given pH.
The rate of creatinine formation from creatine as a function of pH is shown in FIG. 1 in accordance with research conducted by the inventor. In FIG. 2, the rate of creatine loss as a function of time upon dissolution in different pH buffers is shown.

The next data set relates to human body. Particulars: 5 grams of creatine, 4-6 times a day, for two or more days, oral; cited from earlier work.
The conditions of data set [2]: acidic solutions having a pH range of from 3-6; cited from earlier work.

Structures are written as SMILES.

Regarding `CN(CC(=O)O)C(=N)N` [creatine], in data set [1] (different pH buffers, as a function of time (FIG. 2)), the “creatine remaining following dissolution in a pH buffer” value is recorded as “the higher the pH, the higher the creatine remaining”. In addition, in data set [1] (various pH solutions, 1 g creatine in 2 liter (FIG. 3)), the “rate of conversion of one gram of creatine to creatinine” value is “substantially slowed by increasing the pH of the solution”. Also, the total creatine concentration entry with human body was “significant increase”. The “rate of conversion of creatine to creatinine” value in data set [2] is on record as “almost instantaneous”.
